Reference: US4684664A, “Derivatives of β-(4-isocyano-1,2,3,4-diepoxycyclopentyl) acrylic acid” (Kureha Kagaku Kogyo Kabushiki Kaisha, priority 1984, dated 1987)
≈ marks a conversion by molar mass, not a printed value.

How the values were obtained:
Format in all cases: cell-based
[1] = tested on: Staphylococcus aureus MS 353; assay: Antibacterial activity, agar-dilution MIC, organism No. 3; details: Staphylococcus aureus, MS353; Organism No. 3, bouillon-agar; read-out: Minimum Inhibitory Concentration
Procedure, shortened: (§1)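 Read-out is the minimum inhibitory concentration, given as μg/ml of the culture medium, obtained by agar dilution using bouillon agar.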

[2] = tested on: Escherichia coli K12 C600 IAM 1264; assay: Antibacterial activity, agar-dilution MIC, organism No. 6; details: Escherichia coli, IAM1264; Organism No. 6, bouillon-agar; read-out: Minimum Inhibitory Concentration
Procedure, shortened: as §1

[3] = tested on: Streptococcus faecium IFO 3826; assay: Antibacterial activity, agar-dilution MIC, organism No. 27; details: Enterococcus faecium, IFO3826; Organism No. 27, bouillon-agar; read-out: Minimum Inhibitory Concentration
Procedure, shortened: as §1

[4] = tested on: Pseudomonas aeruginosa IFO 3445; assay: Antibacterial activity, agar-dilution MIC, organism No. 15; details: Pseudomonas aeruginosa, IFO3445; Organism No. 15, bouillon-agar; read-out: Minimum Inhibitory Concentration
Procedure, shortened: as §1

[5] = tested on: Proteus morganii IFO 3848; assay: Antibacterial activity, agar-dilution MIC, organism No. 18; details: Morganella morganii, IFO3848; Organism No. 18, bouillon-agar; read-out: Minimum Inhibitory Concentration
Procedure, shortened: as §1

[6] = tested on: Salmonella typhi 901; assay: Antibacterial activity, agar-dilution MIC, organism No. 9; details: Salmonella enterica, TYPHI, read-out: Minimum Inhibitory Concentration
Procedure, shortened: as §1

[7] = tested on: Bacillus subtilis ATCC 6633; assay: Antibacterial activity, agar-dilution MIC, organism No. 14; details: Bacillus subtilis, ATCC6633; Organism No. 14, bouillon-agar; read-out: Minimum Inhibitory Concentration
Procedure, shortened: as §1

[8] = tested on: Proteus mirabilis IFO 3849; assay: Antibacterial activity, agar-dilution MIC, organism No. 19; details: Proteus mirabilis, IFO3849; Organism No. 19, bouillon-agar; read-out: Minimum Inhibitory Concentration
Procedure, shortened: as §1

[9] = tested on: Pseudomonas aeruginosa NCTC 10490; assay: Antibacterial activity, agar-dilution MIC, organism No. 16; details: Pseudomonas aeruginosa, NCTC10490; Organism No. 16, bouillon-agar; read-out: Minimum Inhibitory Concentration
Procedure, shortened: as §1

[10] = tested on: Proteus rettgeri IFO 3850; assay: Antibacterial activity, agar-dilution MIC, organism No. 22; details: Providencia rettgeri, IFO3850; Organism No. 22, bouillon-agar; read-out: Minimum Inhibitory Concentration
Procedure, shortened: as §1

[11] = tested on: Escherichia coli NIHJ-JC-2; assay: Antibacterial activity, agar-dilution MIC, organism No. 5; details: Escherichia coli, NIHJJC2; Organism No. 5, bouillon-agar; read-out: Minimum Inhibitory Concentration
Procedure, shortened: as §1

[12] = tested on: Aspergillus niger IFO 6342; assay: Antifungal activity, agar-dilution MIC, organism No. 30; details: Aspergillus niger, IFO6342; Organism No. 30, bouillon-agar; read-out: Minimum Inhibitory Concentration
Procedure, shortened: as §1

[13] = tested on: Staphylococcus aureus FDA 209PJc-1; assay: Antibacterial activity, agar-dilution MIC, organism No. 1; details: Staphylococcus aureus, FDA209PJC1; Organism No. 1, bouillon-agar; read-out: Minimum Inhibitory Concentration
Procedure, shortened: as §1

[14] = tested on: Pseudomonas aeruginosa PAO 1; assay: Antibacterial activity, agar-dilution MIC, organism No. 17; details: Pseudomonas aeruginosa, PAO1; Organism No. 17, bouillon-agar; read-out: Minimum Inhibitory Concentration
Procedure, shortened: as §1

[15] = tested on: Salmonella enteritidis G 14; assay: Antibacterial activity, agar-dilution MIC, organism No. 12; details: Salmonella enterica, ENTERITIDIS; Organism No. 12, bouillon-agar; read-out: Minimum Inhibitory Concentration
Procedure, shortened: as §1

[16] = tested on: Enterobacter cloacae 963; assay: Antibacterial activity, agar-dilution MIC, organism No. 24; details: Enterobacter cloacae, 963; Organism No. 24, bouillon-agar; read-out: Minimum Inhibitory Concentration
Procedure, shortened: as §1

[17] = tested on: Salmonella paratyphi-A 1015; assay: Antibacterial activity, agar-dilution MIC, organism No. 10; details: Salmonella enterica, PARATYPHI, read-out: Minimum Inhibitory Concentration
Procedure, shortened: as §1

[18] = tested on: Streptococcus pyogenes IFO 3340; assay: Antibacterial activity, agar-dilution MIC, organism No. 26; details: Streptococcus pyogenes, IFO3340; Organism No. 26, bouillon-agar; read-out: Minimum Inhibitory Concentration
Procedure, shortened: as §1

[19] = tested on: Klebsiella pneumoniae PCI-602; assay: Antibacterial activity, agar-dilution MIC, organism No. 7; details: Klebsiella pneumoniae, PCI602; Organism No. 7, bouillon-agar; read-out: Minimum Inhibitory Concentration
Procedure, shortened: as §1

[20] = tested on: Salmonella shottmuelleri 8006; assay: Antibacterial activity, agar-dilution MIC, organism No. 11; details: Salmonella, 8006; Organism No. 11, bouillon-agar; read-out: Minimum Inhibitory Concentration
Procedure, shortened: as §1

[21] = tested on: Streptococcus pyogenes Cook; assay: Antibacterial activity, agar-dilution MIC, organism No. 4; details: Streptococcus pyogenes; Organism No. 4, bouillon-agar; read-out: Minimum Inhibitory Concentration
Procedure, shortened: as §1

[22] = tested on: Staphylococcus aureus Terajima; assay: Antibacterial activity, agar-dilution MIC, organism No. 2; details: Staphylococcus aureus; Organism No. 2, bouillon-agar; read-out: Minimum Inhibitory Concentration
Procedure, shortened: as §1

[23] = tested on: Enterobacter aerogenes ATCC 13048; assay: Antibacterial activity, agar-dilution MIC, organism No. 23; details: Klebsiella aerogenes, ATCC13048; Organism No. 23, bouillon-agar; read-out: Minimum Inhibitory Concentration
Procedure, shortened: as §1

[24] = tested on: Serratia marcescens IAM 1184; assay: Antibacterial activity, agar-dilution MIC, organism No. 13; details: Serratia marcescens, IAM1184; Organism No. 13, bouillon-agar; read-out: Minimum Inhibitory Concentration
Procedure, shortened: as §1

[25] = tested on: Salmonella typhimurium IID 971; assay: Antibacterial activity, agar-dilution MIC, organism No. 8; details: Salmonella enterica; Organism No. 8, bouillon-agar; read-out: Minimum Inhibitory Concentration
Procedure, shortened: as §1

[26] = tested on: Candida albicans IAM 4905; assay: Antifungal activity, agar-dilution MIC, organism No. 29; details: Candida albicans, IAM4905; Organism No. 29, bouillon-agar; read-out: Minimum Inhibitory Concentration
Procedure, shortened: as §1

[27] = tested on: Proteus vulgaris OX-19; assay: Antibacterial activity, agar-dilution MIC, organism No. 20; details: Proteus vulgaris, OX19; Organism No. 20, bouillon-agar; read-out: Minimum Inhibitory Concentration
Procedure, shortened: as §1

[28] = tested on: Proteus vulgaris HX-19; assay: Antibacterial activity, agar-dilution MIC, organism No. 21; details: Proteus vulgaris, HX19; Organism No. 21, bouillon-agar; read-out: Minimum Inhibitory Concentration
Procedure, shortened: as §1

[29] = tested on: Mycoplasma pneumoniae IID817; assay: Antimycoplasmal activity, MIC by phenol red colour change, organism No. 28; details: Mycoplasma, IID817; Organism No. 28, PPLO broth + 1% glucose, 37° C.; read-out: Minimum Inhibitory Concentration (MIC)
Method: Mycoplasma pneumoniae IID817 was used as the test microorganism in a culture medium prepared by adding 1% of glucose to "PPLO broth (manufactured by Difco Co.) liquid culture medium" at 37° C. with phenol red as an indicator, thereby culturing the test microorganism.

[30] = tested on: Micrococcus luteus ATCC 9341; assay: Antibacterial activity, agar-dilution MIC, organism No. 25; details: Micrococcus luteus, ATCC9341; Organism No. 25, bouillon-agar; read-out: Minimum Inhibitory Concentration
Procedure, shortened: as §1

| Compound | MIC [1] [µg/mL] | MIC [2] [µg/mL] | MIC [3] [µg/mL] | MIC [4] [µg/mL] | MIC [5] [µg/mL] | MIC [6] [µg/mL] | MIC [7] [µg/mL] | MIC [8] [µg/mL] | MIC [9] [µg/mL] | MIC [10] [µg/mL] | MIC [11] [µg/mL] | MIC [12] [µg/mL] | MIC [13] [µg/mL] | MIC [14] [µg/mL] | MIC [15] [µg/mL] | MIC [16] [µg/mL] | MIC [17] [µg/mL] | MIC [18] [µg/mL] | MIC [19] [µg/mL] | MIC [20] [µg/mL] | further results |
| --- | --- | --- | --- | --- | --- | --- | --- | --- | --- | --- | --- | --- | --- | --- | --- | --- | --- | --- | --- | --- | --- |
| [C-]#[N+]C12CC3(/C=C/C(=O)N4CCOCC4)OC3C1O2 (stereo not drawn) [compound 22] | 50 (≈ 191 µM) | 50 (≈ 191 µM) | > 200 | > 200 | 6.25 (≈ 23.8 µM) | 6.25 (≈ 23.8 µM) | 200 (≈ 763 µM) | > 200 | > 200 | > 200 | 50 (≈ 191 µM) | 3.13 (≈ 11.9 µM) | 50 (≈ 191 µM) | > 200 | 12.5 (≈ 47.7 µM) | > 200 | 25 (≈ 95.3 µM) | 200 (≈ 763 µM) | 50 (≈ 191 µM) | 25 (≈ 95.3 µM) | MIC [21]: 50 µg/mL (≈ 191 µM); MIC [22]: 100 µg/mL (≈ 381 µM); MIC [23]: > 200 µg/mL; MIC [24]: > 200 µg/mL; MIC [25]: 25 µg/mL (≈ 95.3 µM); MIC [26]: 6.25 µg/mL (≈ 23.8 µM); MIC [27]: 12.5 µg/mL (≈ 47.7 µM); MIC [28]: 1.56 µg/mL (≈ 5.95 µM); MIC [29]: 1.56 µg/mL; MIC [30]: 0.39 µg/mL (≈ 1.49 µM) |
| [C-]#[N+]C12CC3(/C=C/C(=O)OC)OC3C1O2 (stereo not drawn) [Compound No. 1] | 6.25 (≈ 30.2 µM) | 12.5 (≈ 60.3 µM) | 12.5 (≈ 60.3 µM) | > 200 | 6.25 (≈ 30.2 µM) | 3.13 (≈ 15.1 µM) | 50 (≈ 241 µM) | 6.25 (≈ 30.2 µM) | > 200 | 25 (≈ 121 µM) | 12.5 (≈ 60.3 µM) | 12.5 (≈ 60.3 µM) | 12.5 (≈ 60.3 µM) | > 200 | 6.25 (≈ 30.2 µM) | 25 (≈ 121 µM) | 6.25 (≈ 30.2 µM) | 100 (≈ 483 µM) | 6.25 (≈ 30.2 µM) | 6.25 (≈ 30.2 µM) | MIC [21]: 200 µg/mL (≈ 965 µM); MIC [22]: 12.5 µg/mL (≈ 60.3 µM); MIC [23]: > 200 µg/mL; MIC [24]: 200 µg/mL (≈ 965 µM); MIC [25]: 12.5 µg/mL (≈ 60.3 µM); MIC [26]: 6.25 µg/mL (≈ 30.2 µM); MIC [27]: 6.25 µg/mL (≈ 30.2 µM); MIC [28]: 0.2 µg/mL (≈ 0.965 µM); MIC [29]: < 0.2 µg/mL; MIC [30]: 6.25 µg/mL (≈ 30.2 µM) |
| [C-]#[N+]C12CC3(/C=C/C(=O)OCc4ccccc4[N+](=O)[O-])OC3C1O2 (stereo not drawn) [compound 13] | 0.39 (≈ 1.19 µM) | 100 (≈ 305 µM) | 0.78 (≈ 2.38 µM) | > 200 | 12.5 (≈ 38.1 µM) | 50 (≈ 152 µM) | 25 (≈ 76.2 µM) | > 200 | > 200 | 100 (≈ 305 µM) | 100 (≈ 305 µM) | 6.25 (≈ 19 µM) | 0.39 (≈ 1.19 µM) | > 200 | 200 (≈ 609 µM) | > 200 | 25 (≈ 76.2 µM) | 100 (≈ 305 µM) | 25 (≈ 76.2 µM) | 12.5 (≈ 38.1 µM) | MIC [21]: 100 µg/mL (≈ 305 µM); MIC [22]: 0.39 µg/mL (≈ 1.19 µM); MIC [23]: > 200 µg/mL; MIC [24]: 100 µg/mL (≈ 305 µM); MIC [25]: 200 µg/mL (≈ 609 µM); MIC [26]: 0.8 µg/mL (≈ 2.44 µM); MIC [27]: 25 µg/mL (≈ 76.2 µM); MIC [28]: 0.1 µg/mL (≈ 0.305 µM); MIC [29]: 0.2 µg/mL; MIC [30]: < 0.1 µg/mL |
